# From article PMC10794144, “A novel antibiotic class targeting the lipopolysaccharide transporter” (Nature, 2024)
# Where two headings read alike, the source gives them in different places.
# Test system: A. baumannii
# Test: MIC, broth microdilution in CAMHB supplemented with human serum, read at 100% growth inhibition
# Type: cell-based, Acinetobacter baumannii
# Conditions: Acinetobacter baumannii, 20% HS, read-out: MIC
# Description: MIC determinations were performed using the broth microdilution method and in line with CLSI guidelines M07 and M100 (refs. [37],[38]). Bacterial inocula were prepared by diluting a 0.5 McFarland suspension in CAMHB or lysogeny broth (LB) specifically for A. baylyi isolates. […] MIC values of all of the tested antibiotics were read as the lowest compound concentration inhibiting bacterial growth by naked eye or beyond which the OD600 ceased to decrease.
compound,measurement,setting,value
CN1C(=O)[C@H](CCCCN)NC(=O)[C@H](CCCN)NCc2cccnc2Sc2cccc(-c3ccc(C(=O)O)cc3)c2CNC(=O)[C@@H]1Cc1c[nH]c2ccccc12 [zosurabalpin],MIC,isolate 1729352,0.25 µg/mL
same,MIC,isolate 1729353,0.25 µg/mL
same,MIC,isolate 1729358,0.25 µg/mL
same,MIC,isolate 1729362,1 µg/mL
same,MIC,isolate 1729379,1 µg/mL
same,MIC,isolate 1864609,0.06 µg/mL
same,MIC,isolate 1864833,0.5 µg/mL
same,MIC,isolate 1865057,0.25 µg/mL
same,MIC,isolate 1865083,0.5 µg/mL
same,MIC,isolate 1865084,0.5 µg/mL
same,MIC,isolate 1865085,0.5 µg/mL
same,MIC,isolate 1865086,0.5 µg/mL
same,MIC,isolate 1865266,1 µg/mL
same,MIC,isolate 1865269,0.25 µg/mL
same,MIC,isolate 1865273,0.06 µg/mL
same,MIC,isolate 1865274,0.25 µg/mL
same,MIC,isolate 1865386,0.125 µg/mL
same,MIC,isolate 1865387,0.125 µg/mL
same,MIC,isolate 1865494,0.06 µg/mL
same,MIC,isolate 1865714,0.25 µg/mL
same,MIC,isolate 1866281,0.125 µg/mL
same,MIC,isolate 1866282,0.06 µg/mL
same,MIC,isolate 1866283,0.03 µg/mL
same,MIC,isolate 1866370,0.25 µg/mL
same,MIC,isolate 1866376,0.25 µg/mL
same,MIC,isolate 1868315,0.5 µg/mL
same,MIC,isolate 1869068,1 µg/mL
same,MIC,isolate 1869084,4 µg/mL
same,MIC,isolate 1869085,1 µg/mL
same,MIC,isolate 1869086,1 µg/mL
same,MIC,isolate 1869087,1 µg/mL
same,MIC,isolate 1869088,0.5 µg/mL
same,MIC,isolate 1869089,0.25 µg/mL
same,MIC,isolate 1869090,0.25 µg/mL
same,MIC,isolate 1869091,0.25 µg/mL
same,MIC,isolate 1869093,0.25 µg/mL
same,MIC,isolate 1869173,0.25 µg/mL
same,MIC,isolate 1870044,0.03 µg/mL
same,MIC,isolate 1870131,1 µg/mL
same,MIC,isolate 1870152,0.25 µg/mL
same,MIC,isolate 1870171,0.5 µg/mL
same,MIC,isolate 1871948,1 µg/mL
same,MIC,isolate 1872001,0.25 µg/mL
same,MIC,isolate 1872360,4 µg/mL
same,MIC,isolate 1887389,0.06 µg/mL
same,MIC,isolate 1887397,0.06 µg/mL
same,MIC,isolate 1887497,0.06 µg/mL
same,MIC,isolate 1887498,0.06 µg/mL
same,MIC,isolate 1897312,0.03 µg/mL
same,MIC,isolate 1897314,0.25 µg/mL
same,MIC,isolate 1897317,0.25 µg/mL
same,MIC,isolate 1914727,0.5 µg/mL
same,MIC,isolate 1914733,0.06 µg/mL
same,MIC,isolate 1930837,0.06 µg/mL
same,MIC,isolate 1930840,0.125 µg/mL
